Results: patent US9169241B2, “Quinolinyloxyphenylsulfonamides” (Max-Planck-Gesellschaft Zur Forderung der Wissenschaften …, priority 2009, dated 2015)

Key:
[1] = molecular target: T1, wild type AXL (wtAXL) receptor tyrosine kinase (Homo sapiens, UniProt P30530); assay: NIH-3T3-AXL cellular kinase assay (pY-AXL-ELISA); format: cell-based; settings: NIH-3T3-AXL (clone 22) cells, serum depleted, compounds 1 h; Table Ia
T1 construct: WtAXL cDNA was cloned into vector pLXSN(ESK) and transfected into Phoenix E packaging cells; expressed in transfected cells; host or cells: NIH3T3 N7 (mouse fibroblasts), retrovirally infected, clone 22
T1 sequence (P30530 26-894): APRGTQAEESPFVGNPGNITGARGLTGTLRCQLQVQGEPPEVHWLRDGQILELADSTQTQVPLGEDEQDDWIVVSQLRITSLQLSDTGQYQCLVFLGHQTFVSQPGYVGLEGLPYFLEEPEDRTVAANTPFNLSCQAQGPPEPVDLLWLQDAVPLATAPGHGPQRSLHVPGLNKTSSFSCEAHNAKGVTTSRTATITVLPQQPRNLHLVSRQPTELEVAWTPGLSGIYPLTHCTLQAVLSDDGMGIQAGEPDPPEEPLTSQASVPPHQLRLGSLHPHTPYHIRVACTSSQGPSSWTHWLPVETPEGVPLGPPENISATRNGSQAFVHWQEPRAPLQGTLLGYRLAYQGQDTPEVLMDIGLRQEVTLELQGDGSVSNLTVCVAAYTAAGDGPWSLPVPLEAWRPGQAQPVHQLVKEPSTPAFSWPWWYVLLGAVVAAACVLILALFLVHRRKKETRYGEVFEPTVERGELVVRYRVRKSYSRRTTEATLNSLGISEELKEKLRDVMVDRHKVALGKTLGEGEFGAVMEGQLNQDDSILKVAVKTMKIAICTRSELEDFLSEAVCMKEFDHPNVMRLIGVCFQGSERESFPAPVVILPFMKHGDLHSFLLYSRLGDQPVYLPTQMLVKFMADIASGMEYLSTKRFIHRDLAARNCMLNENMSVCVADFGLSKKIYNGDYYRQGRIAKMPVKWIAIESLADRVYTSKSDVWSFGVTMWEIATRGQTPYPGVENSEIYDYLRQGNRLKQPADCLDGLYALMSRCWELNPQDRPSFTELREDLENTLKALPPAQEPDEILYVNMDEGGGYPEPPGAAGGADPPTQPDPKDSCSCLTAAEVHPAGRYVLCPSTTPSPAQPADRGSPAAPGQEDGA
Procedure: WtAXL cDNA was cloned into vector pLXSN(ESK) and transfected into Phoenix E packaging cells. The viral supernatant was collected and used to infect target cells NIH3T3 N7. Monoclonal NIH3T3-AXL cell lines stably expressing wtAXL were generated by selecting retrovirally infected cells in medium containing puromycin (2 μg/ml) and subsequent clonal separation.
Serial dilutions of compounds were added, and the cells were further incubated for 1 h. Cells were washed with PBS and lysed on ice in 500 μl lysis buffer (50 mM HEPES (pH 7.5), 150 mM NaCl, 1 mM EGTA, 10% Glycerol, 1% Triton X-100, 100 mM NaF, 10 mM Na4P2O7.10H2O, 1 mM Na3VO4, 1 mM phenylmethylsulfonyl fluoride, and […]) for 15 min. The cell lysate were used for phosphotyrosine AXL enzyme-linked immunosorbant assay (pY-AXL-ELISA). […] Subsequently 96-well plates were blocked with PBS-0.05% Tween®20+10% FBS for 4 h at 37° C. Plates were washed 5 times with PBS-0.05% Tween®20 and 95 μl of lysate was transferred per well for incubation overnight at 4° C. Plates were washed 5 times with PBS-0.05% Tween®20 (Sigma, Steinheim, Germany). For detection of phosphorylated tyrosine we used homemade biotynilated 4G10-antibody (0.5 μg/ml) in PBS-0.05% Tween®20+10% FBS (100 μl/well) and incubated the 96-well plate for 2 h at room temperature. The anti-phosphotyrosine mouse monoclonal antibody 4G10 was biotynilated with Sulfo-NHS®-Biotin according to the suppliers protocol (Pierce, Rockford, Ill., USA) and purified by Mirco Bio-Spin 6 Chromatograpy Columns (BIO RAD Laboratories, Inc., Hercules, Calif., USA) using PBS as diluent. Plates were washed 5 times with PBS-0.05% Tween®20. For biding to biotin Alkaline Phosphatase Conjugated Strepavidin SA110 (Millipore, Billerica, Mass., USA) (1:4000) was used in PBS-0.05% Tween20+10% FBS (100 μl/well) and incubated for 30 min at room temperature. Plates were washed 5 times with PBS-0.05% Tween20. For fluorimetric detection of alkaline phosphatase AttoPhos Substrate Set (Roche diagnostics GmbH, Mannheim, Germany) was used (100 μl/well). The fluorimetric signal was quantified after 90 min at 430/560 nm wavelength using a TECAN Ultra Evolution plate reader (Tecan Deutschland GmbH, Crailsheim, Germany).

Hs578T [2] = assay: Cell vitality assay (ATP assay, CellTiter-Glo); format: cell-based; settings: Homo sapiens, Hs-578T; HS578T cell line, 72 h; Table Ib; read-out: IC50 ATP-Assay HS578T after 72 h
How it was run: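 ATP-based luminescence (CellTiter-Glo) after 72 h exposure of 1000 cells/well to seven compound concentrations from 0.195 to 12.5 μM. IC50 defined as concentration reducing ATP to 50% of DMSO control.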

Hs578T [3] = assay: Wound healing migration assay; format: cell-based; settings: Homo sapiens, Hs-578T; HS578T cell line; Table Ib
How it was run: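 Compound exposure at 12.5, 6.25 and 3.125 μM, with DMSO control, on scratch-wounded monolayers (150000 cells/24 well, overnight). Wound closure imaged by microscopy, fixed with crystal violet after 48 h or 72 h depending on cell line; IC50 is the concentration giving 50% wound size between t0 and t48/t72.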

Hs578T [4] = assay: Matrigel outgrowth assay/branching assay; format: cell-based; settings: Homo sapiens, Hs-578T; HS578T cell line; Table Ib; read-out: Total branching inhibition in Matrigel HS578T
How it was run: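 Invasive outgrowth into a 3 mg/ml Matrigel gel is judged from images taken after 48, 72 and 96 h of exposure to 3.125, 1.56 or 0.78 μM compound, with DMSO as control. Positive means total inhibition of branching.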

Row | IC50 [1] | IC50 (Hs578T [3]) | melting point | SMILES | IC50 (Hs578T [2]) | IC50 (Hs578T [4])
1 | < 500 nM | ≤ 12.5 µM | 128 to 130 °C | COc1cc2c(Oc3ccc(NS(=O)(=O)c4cc(Cl)ccc4Cl)cc3F)ccnc2cc1OCCCN1CCCCC1C (centres unmarked) [Example 154, 2,5-Dichloro-N-(3-fluoro-4-{6-methoxy-7-[3-(2-methyl-piperidin-1-yl)-propoxy]-quinolin-4-yloxy}-phenyl)-benzenesulfonamide] | ≤ 12.5 µM | 10 to 25 µM
2 | < 500 nM | ≤ 12.5 µM | 99 to 100 °C | COc1cc2c(Oc3ccc(NS(=O)(=O)c4ccccc4C)cc3F)ccnc2cc1OCCCN1CCCC(C)C1 (centres unmarked) [Example 44, N-(3-Fluoro-4-{6-methoxy-7-[3-(3-methyl-piperidin-1-yl)-propoxy]-quinolin-4-yloxy}-phenyl)-2-methyl-benzenesulfonamide] | ≤ 12.5 µM | ≤ 10 µM
3 | 500 to 3000 nM | ≤ 12.5 µM | 187 to 188 °C | COc1cc2c(Oc3ccc(NS(=O)(=O)c4cc(Cl)ccc4Cl)cc3C)ccnc2cc1OCCCN1CCC(C)CC1 [Example 175, 2,5-Dichloro-N-(4-{6-methoxy-7-[3-(4-methyl-piperidin-1-yl)-propoxy]-quinolin-4-yloxy}-3-methyl-phenyl)-benzenesulfonamide] | ≤ 12.5 µM | ≤ 10 µM
4 | < 500 nM | ≤ 12.5 µM | 144 to 145 °C | COc1cc2c(Oc3ccc(NS(=O)(=O)c4cc(Cl)ccc4Cl)cc3Cl)ccnc2cc1OCCCN1CCN(C)CC1 [Example 124, 2,5-Dichloro-N-(3-chloro-4-{6-methoxy-7-[3-(4-methyl-piperazin-1-yl)-propoxy]-quinolin-4-yloxy}-phenyl)-benzenesulfonamide] | ≤ 12.5 µM | ≤ 10 µM

More lines, now with the values behind:

Row | SMILES | IC50 [1] | IC50 (Hs578T [3]) | melting point | IC50 (Hs578T [2]) | IC50 (Hs578T [4])
5 | COc1cc2c(Oc3ccc(NS(=O)(=O)c4cccc(OC(F)F)c4)cc3F)ccnc2cc1OCCCN1CCCCC1 [Example 9, 3-Difluoromethoxy-N-{3-fluoro-4-[6-methoxy-7-(3-piperidin-1-yl-propoxy)-quinolin-4-yloxy]-phenyl}-benzenesulfonamide] | < 500 nM | 12.5 to 50 µM | 105 to 106 °C | ≤ 12.5 µM | 10 to 25 µM
6 | COc1cc2c(Oc3ccc(NS(=O)(=O)c4csc5ccccc45)cc3F)ccnc2cc1OCCCN1CCOCC1 [Example 114, Benzo[b]thiophene-3-sulfonic acid {3-fluoro-4-[6-methoxy-7-(3-morpholin-4-yl-propoxy)-quinolin-4-yloxy]-phenyl}-amide] | < 500 nM | 12.5 to 50 µM | 196 to 197 °C | ≤ 12.5 µM | 10 to 25 µM
7 | COc1cc2c(Oc3ccc(NS(=O)(=O)c4ccccc4F)cc3Cl)ccnc2cc1OCCCN1CCN(C)CC1 [Example 111, N-(3-Chloro-4-{6-methoxy-7-[3-(4-methyl-piperazin-1-yl)-propoxy]-quinolin-4-yloxy}-phenyl)-2-fluoro-benzenesulfonamide] | < 500 nM | ≤ 12.5 µM | 170 to 171 °C | ≤ 12.5 µM | ≤ 10 µM
8 | COc1cc2c(Oc3ccc(NS(=O)(=O)c4ccccc4OC(F)(F)F)cc3F)ccnc2cc1OCCCN1CCCCC1C (centres unmarked) [Example 153, N-(3-Fluoro-4-{6-methoxy-7-[3-(2-methyl-piperidin-1-yl)-propoxy]-quinolin-4-yloxy}-phenyl)-2-trifluoromethoxy-benzenesulfonamide] | < 500 nM | ≤ 12.5 µM | 90 to 92 °C | ≤ 12.5 µM | 10 to 25 µM
9 | COc1cc2c(Oc3ccc(NS(=O)(=O)c4ccc(C)s4)cc3F)ccnc2cc1OCCCN1CCCC(C)C1 (centres unmarked) [Example 62, 5-Methyl-thiophene-2-sulfonic acid (3-fluoro-4-{6-methoxy-7-[3-(3-methyl-piperidin-1-yl)-propoxy]-quinolin-4-yloxy}-phenyl)-amide] | < 500 nM | 12.5 to 50 µM | 99 to 101 °C | ≤ 12.5 µM | 10 to 25 µM
10 | COc1cc2c(Oc3ccc(NS(=O)(=O)c4csc5ccccc45)cc3F)ccnc2cc1OCCCN1CCN(C)CC1 [Example 116, Benzo[b]thiophene-3-sulfonic acid (3-fluoro-4-{6-methoxy-7-[3-(4-methyl-piperazin-1-yl)-propoxy]-quinolin-4-yloxy}-phenyl)-amide] | < 500 nM | ≤ 12.5 µM | 112 to 114 °C | ≤ 12.5 µM | 10 to 25 µM
11 | COc1cc2c(Oc3ccc(NS(=O)(=O)c4ccc(F)c(F)c4)cc3F)ccnc2cc1OCCCN1CCCC(C)C1 (centres unmarked) [Example 48, 3,4-Difluoro-N-(3-fluoro-4-{6-methoxy-7-[3-(3-methyl-piperidin-1-yl)-propoxy]-quinolin-4-yloxy}-phenyl)-benzenesulfonamide] | < 500 nM | ≤ 12.5 µM | 120 to 122 °C | ≤ 12.5 µM | 10 to 25 µM
12 | COc1cc2c(Oc3ccc(NS(=O)(=O)c4cccc(OC(F)F)c4)cc3F)ccnc2cc1OCCCN1CCCC(C)C1 (centres unmarked) [Example 43, 3-Difluoromethoxy-N-(3-fluoro-4-{6-methoxy-7-[3-(3-methyl-piperidin-1-yl)-propoxy]-quinolin-4-yloxy}-phenyl)-benzenesulfonamide] | < 500 nM | ≤ 12.5 µM | 99 to 100 °C | ≤ 12.5 µM | ≤ 10 µM
13 | COc1cc2c(Oc3ccc(NS(=O)(=O)c4csc5ccccc45)cc3F)ccnc2cc1OCCCN1CCCC(C)C1 (centres unmarked) [Example 67, Benzo[b]thiophene-3-sulfonic acid (3-fluoro-4-{6-methoxy-7-[3-(3-methyl-piperidin-1-yl)-propoxy]-quinolin-4-yloxy}-phenyl)-amide] | < 500 nM | ≤ 12.5 µM | 126 to 128 °C | ≤ 12.5 µM | ≤ 10 µM
